Source: patent US10859504B2, “Degradable cationic surfactants and use thereof in enhancing chemiluminescence” (Siemens Healthcare Diagnostics Inc., priority 2013, dated 2020)

Experiments:
[1] = cited from earlier work
[2] = Chemiluminescence measurement of anti-TSH antibody conjugate of acridinium ester 3c with cationic surfactants; settings: for Observed enhancement (fold) of chemiluminescence: no surfactant control = 1; for Observed acceleration of emission kinetics (time to >90% emission): without surfactant 62.5 seconds
Method: (§1) To study the impact of degradable cationic surfactants on acridinium ester chemiluminescence, two exemplary cationic surfactants containing cleavable linkages (FIG. 2A) were selected. The synthetic schemes for the two surfactants are illustrated in FIGS. 3-4 and described in Examples 1 and 2 above. Both surfactants were dissolved in Reagent 1 (0.1 M nitric acid containing 0.5% hydrogen peroxide) at five times their reported CMCs in water. CTAC dissolved in Reagent 2 (0.25 M NaOH) was used as the control surfactant. The two carbonate and amide cationic surfactants (FIG. 2A) were dissolved in Reagent 1 to preserve stability, especially during long term storage (Stjerndahl and Holmberg, J. Colloid and Interface Sci., 2005, 291, 570-576). Three acridinium esters (FIG. 2B, compounds 3a, 3b and 3c) were used to make protein conjugates of an anti-TSH antibody (TS=thyroid stimulating hormone) as described in the literature (Natrajan et al, Org. Biomol. Chem., 2011, 9, 5092-5103; Natrajan et al, Org. Biomol. Chem., 2012, 10, 3432-3447). The conjugates contained approximately 5 labels. The conjugates were stored at 4° C. in buffer and chemiluminescence from each conjugate was measured in the absence of surfactant and in the presence of CTAC as well as cationic surfactants 1 and 2 (Tables 1-3, FIGS. 5-7). The ability of each surfactant to (a) increase total light output and (b) accelerate emission kinetics was evaluated over a period of 80 days.
(§2) Chemiluminescence of anti-TSH antibody conjugates of acridinium esters 3a, 3b and 3c (FIG. 2B) was measured on an Autolumat LB953 Plus luininometer from Behold Technologies. The conjugates, ˜2 mg/mL containing approximately five labels, were serially diluted 10^5-fold for chemiluminescence measurements in an aqueous buffer of 10 mM disodium hydrogen phosphate, 0.15 M NaCl and 8 mM sodium azide and 0.015 mM bovine serum albumin (BSA), pH 8.0. A 0.010 mL volume of each diluted acridinium ester sample was dispensed into the bottom of a cuvette. Cuvettes were placed into the primed LB953 and the chemiluminescence reaction was initiated with the sequential addition of 0.3 mL of Reagent 1, a solution of 0.5% hydrogen peroxide in 0.1 M nitric acid followed by the addition of 0.3 mL of Reagent 2, a solution of 0.25 M sodium hydroxide. For measurements in the presence of CTAC, the surfactant (7 mM) was included in Reagent 2. For measurements in the presence of the cationic amide surfactant 1 or the cationic carbonate surfactant 2, each surfactant was dissolved in Reagent 1 at 3.2 mM (surfactant 1) and 2.15 mM (surfactant 2). Each chemiluminescence flash curve was measured in 240 intervals of 0.5 second (120 seconds total time). Each chemiluminescence reaction was carried out a minimum of three times, averaged and converted to a percentage of the chemiluminescence accumulated up to each time interval. The output from the luminometer instrument was expressed as R.L.U.s (Relative Light Units).

[3] = Chemiluminescence measurement of anti-TSH antibody conjugate of acridinium ester 3b with cationic surfactants; settings: for Observed enhancement (fold) of chemiluminescence: no surfactant control = 1; for Observed acceleration of emission kinetics (time to >90% emission): without surfactant 49.5 seconds
Method: as §1, §2

[4] = Chemiluminescence measurement of anti-TSH antibody conjugate of acridinium ester 3a with cationic surfactants; settings: for Observed enhancement (fold) of chemiluminescence: no surfactant control = 1; for Observed acceleration of emission kinetics (time to >90% emission): without surfactant 57.5 seconds; for accelerated emission kinetics: as shown in Table 1b, from 57.5 seconds without surfactant
Method: as §1, §2

[5] = Stability of surfactants in Reagent 1 (0.5% peroxide in 0.1 M nitric acid) on storage; assay type: physicochemical; settings: for stability in Reagent 1: 0.5% peroxide in 0.1 M nitric acid, 80 days at room temperature, little loss in ability to enhance chemiluminescence; for ability to accelerate light emission after storage: 80 days of storage at room temperature
Method: as §1
For example, for all three acridinium ester conjugates, in comparison to the no surfactant control which was assigned a relative light yield of one, total light yield was increased approximately 2.5-4-fold for 3a, 3-5-fold for 3b and 3-4.5-fold for 3c (Tables 1a, 2a and 3a) for CTAC as well as surfactants 1 and 2. […] Even at day 80, the fold of increased light emission using surfactant 2 remains to be about 80% (2.8/3.5) of CTAC. Similarly, the fold of increased light emission using Surfactant 1 is about 89% (3.1/3.5) on day 1, and 74% (2.6/3.5) on day 80 compared to CTAC.
Furthermore, both surfactants 1 and 2 were very effective in accelerating light emission from the acridinium ester antibody conjugates (Tables 1b, 2b and 3b, FIGS. 5-7). […] In the presence of CTAC or the two cationic surfactants 1 and 2, emission times were compressed to <3 seconds for the conjugates of all three acridinium ester labels.

In the case of `CCCCCCCCCCCCCCCC[N+](C)(C)C.[Cl-]` [CTAC, cetyltrimethylammonium chloride, reference compound], the “increase of overall light output” value ([1]; acridinium ester labels and their conjugates) is listed as 3-4 fold, the “emission time of the labels” value ([1]; compressed from approximately 60 s, 7 mM CTAC in 0.25 M sodium hydroxide) is listed as less than 5 s and the “Observed enhancement (fold) of chemiluminescence” value (“Observed enhancement (fold)” below) ([2]; Day 1) is listed as 4.1 fold. The “Observed acceleration of emission kinetics (time to >90% emission)” value ([2]; Day 1) was 2.0 s, the “Observed enhancement (fold)” value ([2]; Day 10) was 4.3 fold and the “Observed acceleration of emission kinetics (time to >90% emission)” value ([2]; Day 10) was 2.0 s. For the same compound, the “Observed enhancement (fold)” value ([2]; Day 20) was 4.6 fold, the “Observed acceleration of emission kinetics (time to >90% emission)” value ([2]; Day 20) was 2.5 s and the “Observed enhancement (fold)” value ([2]; Day 40) was 3.9 fold. The “Observed acceleration of emission kinetics (time to >90% emission)” value ([2]; Day 40) was 2.5 s, the “Observed enhancement (fold)” value ([2]; Day 80) was 4.0 fold and the “Observed acceleration of emission kinetics (time to >90% emission)” value ([2]; Day 80) was 2.5 s. The “Observed enhancement (fold)” value ([3]; Day 1) was 5.3 fold, the “Observed acceleration of emission kinetics (time to >90% emission)” value ([3]; Day 1) was 1.0 s and the “Observed enhancement (fold)” value ([3]; Day 10) was 5.2 fold. The “Observed acceleration of emission kinetics (time to >90% emission)” value ([3]; Day 10) was 1.0 s, the “Observed enhancement (fold)” value ([3]; Day 20) was 5.5 fold and the “Observed acceleration of emission kinetics (time to >90% emission)” value ([3]; Day 20) was 1.0 s. The “Observed enhancement (fold)” value ([3]; Day 40) was 4.2 fold, the “Observed acceleration of emission kinetics (time to >90% emission)” value ([3]; Day 40) was 1.0 s and the “Observed enhancement (fold)” value ([3]; Day 80) was 4.6 fold. The “Observed acceleration of emission kinetics (time to >90% emission)” value ([3]; Day 80) was 1.0 s, the “Observed enhancement (fold)” value ([4]; Day 1) was 3.5 fold and the “Observed acceleration of emission kinetics (time to >90% emission)” value ([4]; Day 1) was 1.5 s. For the same compound, the “Observed enhancement (fold)” value ([4]; Day 10) was 3.6 fold, the “Observed acceleration of emission kinetics (time to >90% emission)” value ([4]; Day 10) was 1.5 s and the “Observed enhancement (fold)” value ([4]; Day 20) was 4.0 fold. The “Observed acceleration of emission kinetics (time to >90% emission)” value ([4]; Day 20) was 1.5 s, the “Observed enhancement (fold)” value ([4]; Day 40) was 3.4 fold and the “Observed acceleration of emission kinetics (time to >90% emission)” value ([4]; Day 40) was 1.5 s. The “Observed enhancement (fold)” value ([4]; Day 80) was 3.5 fold, the “Observed acceleration of emission kinetics (time to >90% emission)” value ([4]; Day 80) was 1.5 s and the accelerated emission kinetics [4] was 1.5 s.

In the case of `CCCCCCCCCCCCCCCC(=O)NCC[N+](C)(C)C` [surfactant 1], the “stability in Reagent 1” value [5] is reported as “quite stable”, the “ability to accelerate light emission after storage” value [5] is reported as “did not diminish” and the “Observed enhancement (fold)” value ([2]; Day 1) is reported as 3.8 fold. The “Observed acceleration of emission kinetics (time to >90% emission)” value ([2]; Day 1) was 2.0 s, the “Observed enhancement (fold)” value ([2]; Day 10) was 3.8 fold and the “Observed acceleration of emission kinetics (time to >90% emission)” value ([2]; Day 10) was 2.0 s. The “Observed enhancement (fold)” value ([2]; Day 20) was 4.1 fold, the “Observed acceleration of emission kinetics (time to >90% emission)” value ([2]; Day 20) was 2.0 s and the “Observed enhancement (fold)” value ([2]; Day 40) was 3.2 fold. The “Observed acceleration of emission kinetics (time to >90% emission)” value ([2]; Day 40) was 2.0 s, the “Observed enhancement (fold)” value ([2]; Day 80) was 3.0 fold and the “Observed acceleration of emission kinetics (time to >90% emission)” value ([2]; Day 80) was 2.0 s. The “Observed enhancement (fold)” value ([3]; Day 1) was 4.5 fold, the “Observed acceleration of emission kinetics (time to >90% emission)” value ([3]; Day 1) was 1.0 s and the “Observed enhancement (fold)” value ([3]; Day 10) was 4.4 fold. For the same compound, the “Observed acceleration of emission kinetics (time to >90% emission)” value ([3]; Day 10) was 0.5 s, the “Observed enhancement (fold)” value ([3]; Day 20) was 4.7 fold and the “Observed acceleration of emission kinetics (time to >90% emission)” value ([3]; Day 20) was 0.5 s. The “Observed enhancement (fold)” value ([3]; Day 40) was 3.4 fold, the “Observed acceleration of emission kinetics (time to >90% emission)” value ([3]; Day 40) was 0.5 s and the “Observed enhancement (fold)” value ([3]; Day 80) was 3.4 fold. The “Observed acceleration of emission kinetics (time to >90% emission)” value ([3]; Day 80) was 0.5 s, the “Observed enhancement (fold)” value ([4]; Day 1) was 3.1 fold and the “Observed acceleration of emission kinetics (time to >90% emission)” value ([4]; Day 1) was 1.0 s. The “Observed enhancement (fold)” value ([4]; Day 10) was 3.1 fold, the “Observed acceleration of emission kinetics (time to >90% emission)” value ([4]; Day 10) was 1.0 s and the “Observed enhancement (fold)” value ([4]; Day 20) was 3.4 fold. The “Observed acceleration of emission kinetics (time to >90% emission)” value ([4]; Day 20) was 1.0 s, the “Observed enhancement (fold)” value ([4]; Day 40) was 2.6 fold and the “Observed acceleration of emission kinetics (time to >90% emission)” value ([4]; Day 40) was 1.0 s. The “Observed enhancement (fold)” value ([4]; Day 80) was 2.6 fold, the “Observed acceleration of emission kinetics (time to >90% emission)” value ([4]; Day 80) was 1.0 s and the accelerated emission kinetics [4] was 1.0 s. The “fold of increased light emission compared to CTAC” value (“fold of increased light emission” for short) ([4]; day 1) was “about 89%” and the “fold of increased light emission” value ([4]; day 80) was roughly 74%.

With `CCCCCCCCCCCCOC(=O)OCCCC[N+](C)(C)C` [surfactant 2] the “stability in Reagent 1” value [5] was “quite stable”, the “ability to accelerate light emission after storage” value [5] was “did not diminish” and the “Observed enhancement (fold)” value ([2]; Day 1) was 4.2 fold. For the same compound, the “Observed acceleration of emission kinetics (time to >90% emission)” value ([2]; Day 1) was 1.0 s, the “Observed enhancement (fold)” value ([2]; Day 10) was 4.2 fold and the “Observed acceleration of emission kinetics (time to >90% emission)” value ([2]; Day 10) was 1.0 s. For the same compound, the “Observed enhancement (fold)” value ([2]; Day 20) was 4.4 fold, the “Observed acceleration of emission kinetics (time to >90% emission)” value ([2]; Day 20) was 1.5 s and the “Observed enhancement (fold)” value ([2]; Day 40) was 3.7 fold. The “Observed acceleration of emission kinetics (time to >90% emission)” value ([2]; Day 40) was 1.5 s, the “Observed enhancement (fold)” value ([2]; Day 80) was 3.5 fold and the “Observed acceleration of emission kinetics (time to >90% emission)” value ([2]; Day 80) was 1.5 s. For the same compound, the “Observed enhancement (fold)” value ([3]; Day 1) was 5.0 fold, the “Observed acceleration of emission kinetics (time to >90% emission)” value ([3]; Day 1) was 0.5 s and the “Observed enhancement (fold)” value ([3]; Day 10) was 5.2 fold. The “Observed acceleration of emission kinetics (time to >90% emission)” value ([3]; Day 10) was 0.5 s, the “Observed enhancement (fold)” value ([3]; Day 20) was 5.2 fold and the “Observed acceleration of emission kinetics (time to >90% emission)” value ([3]; Day 20) was 0.5 s. The “Observed enhancement (fold)” value ([3]; Day 40) was 3.9 fold, the “Observed acceleration of emission kinetics (time to >90% emission)” value ([3]; Day 40) was 0.5 s and the “Observed enhancement (fold)” value ([3]; Day 80) was 4.1 fold. The “Observed acceleration of emission kinetics (time to >90% emission)” value ([3]; Day 80) was 0.5 s, the “Observed enhancement (fold)” value ([4]; Day 1) was 3.5 fold and the “Observed acceleration of emission kinetics (time to >90% emission)” value ([4]; Day 1) was 1.0 s. The “Observed enhancement (fold)” value ([4]; Day 10) was 3.6 fold, the “Observed acceleration of emission kinetics (time to >90% emission)” value ([4]; Day 10) was 1.0 s and the “Observed enhancement (fold)” value ([4]; Day 20) was 3.7 fold. For the same compound, the “Observed acceleration of emission kinetics (time to >90% emission)” value ([4]; Day 20) was 1.0 s, the “Observed enhancement (fold)” value ([4]; Day 40) was 3.2 fold and the “Observed acceleration of emission kinetics (time to >90% emission)” value ([4]; Day 40) was 1.0 s. For the same compound, the “Observed enhancement (fold)” value ([4]; Day 80) was 2.8 fold, the “Observed acceleration of emission kinetics (time to >90% emission)” value ([4]; Day 80) was 1.0 s and the accelerated emission kinetics [4] was 1.0 s. The “fold of increased light emission” value ([4]; day 80) was “about 80%” and the “effectiveness in enhancing chemiluminescence relative to CTAC” value ([4]; within at least the first 10 days (Table 1a)) was “as effective as CTAC”.
